Laboratory results reported in patent US11707440B2 (priority 2017, dated 2023).

Key:
subjects with TRD = assay type: in vivo, human; conditions: among the 76 subjects who discontinued intranasal esketamine
From the text: The efficacy and safety analyses are based on the full (IND) analysis set and the full (OP/MA) analysis set. The full (IND) analysis set is defined as all subjects who receive at least 1 dose of intranasal study medication or 1 dose of oral antidepressant in the open-label IND phase (for direct-entry and transferred-entry non-responder subjects). The full (OP/MA) analysis is defined as all subjects who receive at least 1 dose of intranasal study medication or 1 dose of oral antidepressant in the OP/MA phase. Safety variables include cognition function over time, treatment-emergent adverse events (TEAEs), including TEAEs of special interest, vital signs over time, Clinician-Administered Dissociative Symptom Scale (CADDS) over time, and Modified Observer's Assessment of Alertness/Sedation (MOAA/S) score≤3. Efficacy variables include the MADRS which consists of 10 items that cover all the core depressive symptoms: each item is scored from 0 (symptom is not present or is normal) to 6 (severe or continuous presence of the symptom). A total score (0 to 60) is calculated by summing the scores of all 10 items. A higher score represents a more severe condition.
Overall, 90.1% of subjects experienced at least one TEAE in the IND and OP/MA phases.

[1] = tested on: patients with treatment-resistant depression (TRD); experiment: CADSS, Example 7; conditions: human, in vivo, other: intranasal
Protocol: Adverse events were monitored throughout the study. Other safety assessments (i.e., laboratory tests, vital signs, physical examination) were performed at pre-specified time points. Vital signs, the Clinician Administered Dissociative States Scale (CADSS; Bremner, “Measurement of dissociative states with the clinician-administered dissociative states scale (CADSS)”, J. Traumatic Stress, 1998, 11(1):125-136), and the 4-item positive symptom subscale from the Brief Psychiatric Rating Scale (BPRS; Overall, “The Brief Psychiatric Rating Scale. Psychological Reports”, 1962, 10:799-812) were assessed pre-dose, at 40 minutes, and 2 hours post-dose.

[2] = From the text: This example provides an LC-MS/MS method for the determination of ketamine and norketamine in sodium heparin human plasma using ketamine-d4 and norketamine-d4 as the respective internal standards (IS).
[3] = tested on: subjects with MDD at imminent risk for suicide; conditions: esketamine 84 mg
Protocol: The CADSS was measured prior to the start of each dose, at 40 minutes. 2 hours, and 4 hours postdose.

In the case of CN[C@]1(c2ccccc2Cl)CCCCC1=O [esketamine, (S)-2-(2-chlorophenyl)-2-(methylamino)cyclohexanone], the “Subjects with a discontinuation AE considered related (possibly, probably, or very likely) to esketamine” value (subjects with TRD) is reported as 51 subjects, the “Time of peak of perceptual changes/dissociative symptoms (CADSS)” value [1] is reported as 30 to 40 min and the “Time to resolution of perceptual changes/dissociative symptoms (CADSS)” value [1] is reported as ≤ 2 h. The “QC sample freeze/thaw stability” value ([2]; freeze (−20° C.)/thaw (room temperature)) was 3 freeze (−20° C.)/thaw (room temperature) cycles, the “QC sample bench-top stability” value ([2]; human plasma, room temperature) was 18 hours at room temperature and the “Time to resolution of dissociative symptoms (CADSS)” value [3] was ≤ 2 h.
